The values below come from ChEMBL document CHEMBL1144239, “Identification of novel protein kinase CK1 delta (CK1delta) inhibitors through structure-based virtual screening” (Bioorg Med Chem Lett, 2008).

A short description of assay [1]: Inhibition of CK1.
A short description of assay [2]: Cytotoxicity against human ovarian carcinoma cells after 48 hrs. The format is functional, cell-based. Particulars: Ovarian carcinoma cell.
Assay [3] has as its target Casein kinase I isoform delta (Homo sapiens, UniProt P48730). Kind of assay: Inhibition of CK1delta.
The target of assay [4] is Casein kinase I isoform gamma-1 (Homo sapiens, UniProt Q9HCP0). Kind of assay: Inhibition of CK1gamma1.
Casein kinase I isoform gamma-1, sequence (Q9HCP0 whole entry, canonical isoform): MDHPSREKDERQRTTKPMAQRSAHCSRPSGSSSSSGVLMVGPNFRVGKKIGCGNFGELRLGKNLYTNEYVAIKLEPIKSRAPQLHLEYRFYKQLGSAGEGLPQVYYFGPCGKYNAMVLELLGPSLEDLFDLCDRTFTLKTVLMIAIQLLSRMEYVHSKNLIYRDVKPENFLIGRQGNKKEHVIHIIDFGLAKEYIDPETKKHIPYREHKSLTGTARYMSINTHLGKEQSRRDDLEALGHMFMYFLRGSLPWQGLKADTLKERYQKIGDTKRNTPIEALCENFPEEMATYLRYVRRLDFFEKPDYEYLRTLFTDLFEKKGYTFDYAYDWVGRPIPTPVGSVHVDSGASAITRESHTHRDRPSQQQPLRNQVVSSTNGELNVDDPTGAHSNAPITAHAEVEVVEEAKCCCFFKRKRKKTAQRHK
Assay [5] deals with Casein kinase I isoform alpha (Homo sapiens, UniProt P48729). Kind of assay: Inhibition of CK1alpha.
Casein kinase I isoform alpha, sequence (P48729 whole entry, canonical isoform): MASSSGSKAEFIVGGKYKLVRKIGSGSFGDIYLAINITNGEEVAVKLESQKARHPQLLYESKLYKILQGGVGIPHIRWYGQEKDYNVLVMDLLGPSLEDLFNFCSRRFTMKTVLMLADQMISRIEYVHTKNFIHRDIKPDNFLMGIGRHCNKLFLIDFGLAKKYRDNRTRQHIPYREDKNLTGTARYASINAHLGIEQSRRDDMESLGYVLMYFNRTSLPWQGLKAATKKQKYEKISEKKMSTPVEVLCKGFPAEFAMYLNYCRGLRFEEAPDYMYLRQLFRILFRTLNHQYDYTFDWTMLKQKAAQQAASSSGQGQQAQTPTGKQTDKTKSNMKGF
Assay [6] addresses Homeodomain-interacting protein kinase 2 (Homo sapiens, UniProt Q9H2X6). Kind of assay: Inhibition of HIPK2.
Assay [7] has as its target Serine/threonine-protein kinase pim-1 (Homo sapiens, UniProt P11309). Kind of assay: Inhibition of PIM1.
The target of assay [8] is Dual specificity tyrosine-phosphorylation-regulated kinase 1A (Homo sapiens, UniProt Q13627). Kind of assay: Inhibition of DYRK1a.
Assay [9] is described as follows: Inhibition of PKA.
In assay [10] the target is Tyrosine-protein kinase CSK (Homo sapiens, UniProt P41240). Kind of assay: Inhibition of CSK.
Tyrosine-protein kinase CSK, sequence (P41240 whole entry): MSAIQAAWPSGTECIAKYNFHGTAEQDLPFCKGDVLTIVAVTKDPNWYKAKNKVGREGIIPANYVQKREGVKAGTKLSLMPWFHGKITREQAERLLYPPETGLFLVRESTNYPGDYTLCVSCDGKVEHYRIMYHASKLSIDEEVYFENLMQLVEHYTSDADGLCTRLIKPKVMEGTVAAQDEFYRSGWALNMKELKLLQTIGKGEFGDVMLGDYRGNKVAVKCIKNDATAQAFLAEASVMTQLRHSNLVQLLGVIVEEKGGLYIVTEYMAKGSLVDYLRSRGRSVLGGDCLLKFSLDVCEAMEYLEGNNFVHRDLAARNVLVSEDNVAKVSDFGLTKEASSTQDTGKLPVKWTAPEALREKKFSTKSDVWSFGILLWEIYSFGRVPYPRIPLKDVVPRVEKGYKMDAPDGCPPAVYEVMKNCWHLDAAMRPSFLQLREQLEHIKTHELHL
In assay [11] the target is Tyrosine-protein kinase Lyn (Homo sapiens, UniProt P07948). In words: Inhibition of Lyn.
Tyrosine-protein kinase Lyn, sequence (P07948 whole entry): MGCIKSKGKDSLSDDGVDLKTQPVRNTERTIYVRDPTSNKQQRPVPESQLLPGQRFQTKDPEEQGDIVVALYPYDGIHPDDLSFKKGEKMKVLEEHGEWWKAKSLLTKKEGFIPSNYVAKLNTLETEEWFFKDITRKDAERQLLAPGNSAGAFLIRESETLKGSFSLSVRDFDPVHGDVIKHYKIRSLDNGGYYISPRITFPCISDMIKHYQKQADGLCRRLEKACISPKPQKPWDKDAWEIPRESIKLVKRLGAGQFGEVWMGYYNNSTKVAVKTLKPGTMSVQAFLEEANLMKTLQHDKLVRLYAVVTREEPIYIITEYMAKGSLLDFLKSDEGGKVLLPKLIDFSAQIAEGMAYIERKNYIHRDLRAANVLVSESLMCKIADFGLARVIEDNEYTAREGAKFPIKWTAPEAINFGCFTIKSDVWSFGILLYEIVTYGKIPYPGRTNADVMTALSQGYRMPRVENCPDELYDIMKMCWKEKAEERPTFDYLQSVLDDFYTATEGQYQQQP
Assay [12] addresses Tyrosine-protein kinase SYK (Homo sapiens, UniProt P43405). Kind of assay: Inhibition of Syk.
In assay [13] the target is Tyrosine-protein kinase Fgr (Homo sapiens, UniProt P09769). In words: Inhibition of Fgr.
Tyrosine-protein kinase Fgr, sequence (P09769 whole entry): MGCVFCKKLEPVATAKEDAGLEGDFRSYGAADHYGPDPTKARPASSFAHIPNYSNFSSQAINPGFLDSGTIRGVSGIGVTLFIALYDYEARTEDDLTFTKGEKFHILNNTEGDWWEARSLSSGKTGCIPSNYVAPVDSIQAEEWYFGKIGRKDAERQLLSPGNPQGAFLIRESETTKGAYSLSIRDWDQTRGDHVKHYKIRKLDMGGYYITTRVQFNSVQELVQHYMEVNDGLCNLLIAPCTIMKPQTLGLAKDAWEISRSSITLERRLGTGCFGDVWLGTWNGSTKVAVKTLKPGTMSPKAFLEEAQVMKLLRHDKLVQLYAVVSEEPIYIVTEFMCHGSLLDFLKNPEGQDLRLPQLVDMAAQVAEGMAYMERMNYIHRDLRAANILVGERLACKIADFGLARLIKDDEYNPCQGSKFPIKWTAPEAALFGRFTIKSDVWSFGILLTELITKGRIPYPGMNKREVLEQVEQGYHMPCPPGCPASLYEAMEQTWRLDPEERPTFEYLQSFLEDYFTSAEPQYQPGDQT
The target in assay [14] is ALK tyrosine kinase receptor (Homo sapiens, UniProt Q9UM73). In words: Inhibition of GST tagged ALK.
ALK tyrosine kinase receptor, sequence (Q9UM73 whole entry): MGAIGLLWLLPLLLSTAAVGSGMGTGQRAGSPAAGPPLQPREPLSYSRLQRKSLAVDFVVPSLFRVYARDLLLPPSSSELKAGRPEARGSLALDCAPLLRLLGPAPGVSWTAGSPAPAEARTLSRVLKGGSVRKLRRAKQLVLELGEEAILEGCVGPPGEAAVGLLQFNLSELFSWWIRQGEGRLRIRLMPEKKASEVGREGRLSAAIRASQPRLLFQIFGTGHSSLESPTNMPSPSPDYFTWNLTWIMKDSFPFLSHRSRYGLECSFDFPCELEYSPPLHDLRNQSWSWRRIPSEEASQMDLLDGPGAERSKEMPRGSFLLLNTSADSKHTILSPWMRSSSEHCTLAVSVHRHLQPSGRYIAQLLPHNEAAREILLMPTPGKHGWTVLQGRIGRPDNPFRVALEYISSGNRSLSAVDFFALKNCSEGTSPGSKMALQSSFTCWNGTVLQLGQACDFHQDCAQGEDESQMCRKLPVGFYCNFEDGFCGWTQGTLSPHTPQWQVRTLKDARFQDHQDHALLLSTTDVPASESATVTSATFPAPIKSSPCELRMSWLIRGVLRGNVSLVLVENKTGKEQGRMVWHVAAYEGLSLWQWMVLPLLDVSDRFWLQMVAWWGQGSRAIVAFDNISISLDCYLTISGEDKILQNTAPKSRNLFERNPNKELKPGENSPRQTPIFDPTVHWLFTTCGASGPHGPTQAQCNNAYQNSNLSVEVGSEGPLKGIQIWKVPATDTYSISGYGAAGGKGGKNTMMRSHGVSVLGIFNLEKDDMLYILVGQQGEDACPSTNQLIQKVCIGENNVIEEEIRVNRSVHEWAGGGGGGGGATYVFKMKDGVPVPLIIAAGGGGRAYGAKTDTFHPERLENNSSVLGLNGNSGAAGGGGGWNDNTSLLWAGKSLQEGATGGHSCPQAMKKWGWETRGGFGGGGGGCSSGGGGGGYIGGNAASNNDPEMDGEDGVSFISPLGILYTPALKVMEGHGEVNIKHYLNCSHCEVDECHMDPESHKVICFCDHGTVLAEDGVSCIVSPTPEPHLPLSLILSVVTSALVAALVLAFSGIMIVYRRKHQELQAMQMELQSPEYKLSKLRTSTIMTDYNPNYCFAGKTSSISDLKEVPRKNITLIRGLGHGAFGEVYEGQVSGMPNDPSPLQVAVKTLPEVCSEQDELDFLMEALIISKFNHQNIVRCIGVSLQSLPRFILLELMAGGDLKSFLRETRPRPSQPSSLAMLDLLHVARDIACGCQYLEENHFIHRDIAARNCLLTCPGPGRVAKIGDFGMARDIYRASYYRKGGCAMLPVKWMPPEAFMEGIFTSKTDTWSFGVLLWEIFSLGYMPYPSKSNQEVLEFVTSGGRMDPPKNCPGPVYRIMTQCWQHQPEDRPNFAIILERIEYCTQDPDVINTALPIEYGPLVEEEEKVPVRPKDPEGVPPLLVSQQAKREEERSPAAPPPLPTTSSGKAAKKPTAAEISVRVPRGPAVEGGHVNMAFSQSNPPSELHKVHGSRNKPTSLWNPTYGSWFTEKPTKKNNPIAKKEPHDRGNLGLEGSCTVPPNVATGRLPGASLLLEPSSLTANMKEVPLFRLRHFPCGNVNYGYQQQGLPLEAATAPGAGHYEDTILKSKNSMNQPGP
A short description of assay [15]: Cytotoxicity against cisplatin-resistant human C13 cells after 48 hrs. The format is functional, cell-based. Particulars: C13, 48 h.
Assay [16] in a line: Inhibition of CK2.

Casein kinase I isoform delta, sequence (P48730 whole entry, canonical isoform): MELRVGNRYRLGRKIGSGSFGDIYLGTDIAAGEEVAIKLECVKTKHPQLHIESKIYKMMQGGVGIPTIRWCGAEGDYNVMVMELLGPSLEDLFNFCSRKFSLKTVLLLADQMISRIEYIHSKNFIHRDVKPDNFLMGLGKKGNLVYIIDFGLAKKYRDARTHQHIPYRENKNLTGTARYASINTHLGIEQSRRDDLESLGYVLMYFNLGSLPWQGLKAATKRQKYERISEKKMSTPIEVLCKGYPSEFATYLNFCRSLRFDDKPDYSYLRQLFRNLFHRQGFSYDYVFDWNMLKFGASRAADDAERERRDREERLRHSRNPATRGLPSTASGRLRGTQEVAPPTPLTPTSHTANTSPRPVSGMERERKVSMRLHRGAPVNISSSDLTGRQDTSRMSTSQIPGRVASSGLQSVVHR
Serine/threonine-protein kinase pim-1, sequence (P11309 whole entry): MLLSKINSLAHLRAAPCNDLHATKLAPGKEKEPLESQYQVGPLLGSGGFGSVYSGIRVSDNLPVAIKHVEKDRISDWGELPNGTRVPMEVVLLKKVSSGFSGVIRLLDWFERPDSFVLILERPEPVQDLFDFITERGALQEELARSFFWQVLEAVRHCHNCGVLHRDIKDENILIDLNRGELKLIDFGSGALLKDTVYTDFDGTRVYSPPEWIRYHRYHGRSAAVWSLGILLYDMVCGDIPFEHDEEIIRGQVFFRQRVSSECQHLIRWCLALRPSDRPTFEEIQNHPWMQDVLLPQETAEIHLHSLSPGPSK

Turning to `NC(=O)c1ccc(-c2nc(-c3ccc4c(c3)OCCO4)c(-c3ccccn3)[nH]2)cc1`, in [1], the midpoint of inhibition, the IC50, lay at 0.3 µM.

On to `NCCNS(=O)(=O)c1ccc(Cl)c2ccncc12`, for which it took 6 µM to reach half-maximal inhibition in assay [1] (IC50).

Consider `Nc1ccc(N)c2c1C(=O)c1ccccc1C2=O`, for which the IC50 (as a rule, the concentration at which inhibition is half-maximal) in [2] amounted to 14.4 µM; in assay [3], 0.33 µM; in assay [4], 34 µM; in assay [5] it was 4 µM; in assay [6] it was 3.3 µM; in [7], 24.7 µM. Further, the IC50 was 3.6 µM in [8]; above 40 µM in assay [9]; above 40 µM in assay [10]; above 40 µM in assay [11]; above 40 µM in [12]; 24 µM in assay [13]. Further, the IC50 was above 40 µM in [14], 87.9 µM in assay [15] and 18 µM in [16].

Consider `Nc1ccc(O)c2c1C(=O)c1ccccc1C2=O`, for which the IC50 in assay [2] amounted to 122 µM; in assay [3], 0.66 µM; in assay [4], 26.2 µM; in [5] it was 4 µM; in [15], 8 µM.

For `COc1cc(OC)c(C=C2C(=O)Nc3ccccc32)c(OC)c1` [IC261], the IC50 is 2.57 µM in assay [3], above 40 µM in assay [4], 1.24 µM in assay [5] and 1 µM in assay [1].

For the compound `O=C1c2ccccc2C(=O)c2c(O)ccc(O)c21` [QUINIZARIN], the half-maximal inhibitory concentration (IC50) in assay [3], in [4] and in assay [5] was above 40 µM in each case.
